The subject of one experiment is mAb 1B1. Briefly: mAb inhibition ELISA with synthetic oligosaccharides, mAb 1B1. In kind it is binding, mouse. The settings on record: P. aeruginosa PAO1 BAA-47 LPS or whole cell coated plates, 10 μg/ml mAb. The text has this: FIGS. 15A, 15B, and 15C show inhibition ELISAs of mAbs 1B1 (FIG. 15A), 3C4 (FIG. 15B) and 3B8 (FIG. 15C) with LPS (left hand panels; square markers—P. aeruginosa PAO1 BAA-47, inverted triangle markers—P. aeruginosa (wzy::Gm)(Δpa5458), diamond markers—N. meningitidis galE/lpt3 and circular markers—PBS control) or synthetic oligosaccharides representing the terminal methylated rhamnan (right hand panels; solid circle markers—pentasaccharide, open square markers—tetrasaccharide, open circle markers—trisaccharide, inverted triangle markers—disaccharide, diamond markers—disaccharide with linker, triangle markers—L-monomer, solid square markers—D-monomer) against P. aeruginosa PAO1 BAA-47 LPS. Serial dilution, as shown on the x-axis, of either LPS or synthetic oligosaccharide was combined at an equal volume with 10 μg/ml mAb. After 1 h incubation, 100 μl of this inhibition mixture was added to PAO1 BAA-47 LPS coated plates. A secondary mAb specific for the primary mAb was added and absorbance was measured after a colour reagent was added. The absorbance obtained when the mAb is no longer inhibited by additional LPS or synthetic oligosaccharide is equal to inhibition by PBS.
FIGS. 15D, 15E, and 15F show inhibition ELISAs of mAbs 1B1 (FIG. 15D), 3C4 (FIG. 15E) and 3B8 (FIG. 15F) with LPS (left hand panels; square markers—P. aeruginosa PAO1 BAA-47, inverted triangle markers—P. aeruginosa (wzy::Gm)(Δpa5458), diamond markers—N. meningitidis galE/lpt3 and circle markers—PBS control) or synthetic oligosaccharides representing the terminal methylated rhamnan (right hand panels; solid circle markers—pentasaccharide, open square markers—tetrasaccharide, open circle markers—trisaccharide, inverted triangle markers—disaccharide, diamond markers—disaccharide with linker, triangle markers—L-monomer, blue—D-monomer) against P. aeruginosa PAO1 BAA-47 whole cells. Serial dilution, as shown on the x-axis, of either LPS or synthetic oligosaccharide was combined at an equal volume with 10 μg/ml mAb. After 1 h incubation, 100 μl of this inhibition mixture was added to PAO1 BAA-47 whole cell coated plates. A secondary mAb specific for primary the mAb was added and absorbance measured after a colour reagent was added. Absorbance obtained when the mAb is no longer inhibited by additional LPS or synthetic oligosaccharide is equal to inhibition by PBS.
mAb inhibition ELISA: Wells of Nunc Maxisorp EIA plates were coated with either 1 μg of P. aeruginosa LPS in PBS overnight at 4° C. or P. aeruginosa killed whole cells in dH2O in a drying oven overnight, and then brought to RT before use. Plates were blocked with 1% BSA-PBS for 1 h at RT, and then wells were washed with PBS-T. During the blocking step, the inhibition was set-up. Either LPS or a synthetic oligosaccharide was added to a tube at either 1 mg/ml or 3 mg/ml and then a serial dilution with 1% BSA-PBS was performed, before an equal volume of mAb (1B1, 3B8 or 3C4) was added at a constant concentration of 10 μg/ml in 1% BSA-PBS, this mixture was incubated for 1 h at RT. Following washing of the EIA plate with PBS-T, 100 μl from the mixed tubes was added to the plate and allowed to incubate for 1 h at RT for LPS coated plates, or 3 h at RT for killed whole cell coated plates. Following washing with PBS-T, the appropriate AP-labeled goat anti-mouse Ig (Southern Biotech) specific for the mAb used, diluted 1:250 in 1% BSA-PBS, was added for 1 h at RT. The plates were then washed with PBS-T and developed with Phosphatase Substrate System (Kirkegaard and Perry Laboratories). After 60 min, absorbance was measured at 405 nm using a microtiter plate reader. […]

Another experiment deals with 1B1 IgM. The experiment in a line: SPR binding of synthetic oligosaccharides to 1B1 IgM surface. The conditions noted are these: for ka / kd / Obs Rmax (observed maximum binding response): two runs per oligosaccharide; for Obs Rmax (observed maximum binding response): high density 1B1 IgM surface, 25° C., HBS-EP. Also on record: species or system mouse. The protocol:
Various concentration ranges of synthetic oligosaccharides (see Experimental) were flowed over IgM 1B1 and an irrelevant IgM, Fn 4F1. Mcat lgt2/4: control oligosaccharide.
Surface plasmon resonance (SPR): SPR binding assays were performed at 25° C. on a Biacore T200 instrument in HBS-EP running buffer (Cytiva Life Sciences, Mississauga, Canada), essentially as described previously. Briefly, approximately 13000 RUs of IgM (PA 1B1 and control Fn 4F1) were amine coupled to a CM7S sensor chip in 10 mM acetate buffer, pH 4.0 (Cytiva). Synthetic oligosaccharides were reconstituted in HBS-EP to 25 mM and a series of dilutions prepared for injection over IgM surfaces. The contact time was 60 s and the dissociation time 120 s (mono-, di-) or 180 s (tri-, tetra-, penta-). The following concentration ranges were injected: mono- (1 mM-62.5 μM), di- (200 μM-12.5 μM) and tri-, tetra- and penta- (10 μM-625 nM). Mcat lgt2/4 an oligosaccharide from Moraxella catarrhalis, served as a control and was injected at 10 μM. Surfaces were regenerated by extensive washing with HBS-EP. Reference flow cell subtracted sensorgrams were fit to a 1:1 binding model to determine binding kinetics and affinities, or affinities were determined by steady-state analysis.
Synthetic carbohydrates ranging from a monosaccharide to pentasaccharide were flowed over high density surfaces of 1B1 IgM and an irrelevant IgM, Fn 4F1.

The subject of the next experiment is purified PAO1 LPS. The experiment in a line: mAb competition ELISA. In kind it is binding, P. aeruginosa. The settings on record: PAO1 LPS coated plates; 3C4 at 62.5 μg/ml. The protocol:
The plate was washed and mAb 3C4 was added at a constant concentration (62.5 μg/ml). A secondary mAb specific for mAb 3C4 was added and absorbance was measured after a colour reagent was added (line with square markers). The absorbance obtained when 3C4 was added to the plate without 1B1 competition is shown by the line with a triangle marker.
The plate was washed and mAb 3C4 was added at a constant concentration (62.5 μg/ml). A secondary mAb specific for mAb 3C4 was added and absorbance was measured after a colour reagent was added (line with square markers). The absorbance obtained when 3C4 was added to plate without 3B8 competition is shown by the line with a triangle marker.
mAb competition ELISA: Wells of Nunc Maxisorp EIA plates were coated with 1 μg of P. aeruginosa LPS in PBS overnight at 4° C. and then brought to RT before use. Plates were blocked with 1% BSA-PBS for 1 h at RT, and then wells were washed with PBS-T. One mAb (1B1 or 3B8) was titrated and added to the plate for 1 h at RT. Following washing with PBS-T, the second mAb (3C4) was added at a pre-determined concentration and allowed to incubate for 1 h at RT. Following washing with PBS-T, AP-labeled goat anti-mouse IgG2b (Southern Biotech) specific for mAb 3C4, diluted 1:250 in 1% BSA-PBS was added for 1 h at RT. The plates were then washed with PBS-T and developed with Phosphatase Substrate System (Kirkegaard and Perry Laboratories). After 60 min absorbance was measured at 405 nm using a microtiter plate reader.
(In an ELISA, binding on a coated surface is turned into a signal by an enzyme label.)

In experiment [1] the test system is killed whole cells of P. aeruginosa strains. Briefly: ELISA binding of mAbs to killed whole cells. The settings on record: summary statement, serotype strains and clinical isolates. The protocol:
FIGS. 11A, 11B, and 11C show ELISA analysis of binding of 1B1 (FIG. 11A), 3B8 (FIG. 11B), and 3C4 (FIG. 11C) purified monoclonal antibodies (mAbs) (all at 100 μg/ml) to killed whole cells of P. aeruginosa strains NRCC #'s 6678, 6668-70, 6954-60 and negative control strains M. catarrhalis 6541 and N. meningitidis 6263 (see Table 1 for full details of strains).
ELISA: The binding of anti-P. aeruginosa A-band terminal epitope mAbs and polyclonal sera to BSA conjugates, purified LPS and to whole cells was evaluated by ELISA as described previously.

Setting [2] is: 1:1 binding model, table: two runs, text: one value per oligosaccharide, read-out: KD.
Where [3] appears, read: 1:1 binding model, listed as Tri-.

We go through seven molecules from patent US20250161428A1, “PREVENTING/TREATING PSEUDOMONAS AERUGINOSA INFECTION” (priority 2022, published 2025).

Values joined by “and” are separate entries in the source; they are usually repeats but may differ in a detail not shown here. Equal values may be shown once. Read-outs that look alike come from different tables or passages of the source.

Take `CO[C@@H]1[C@H](O)[C@@H](O[C@H]2[C@H](OC)[C@H](O)[C@@H](O[C@H]3[C@H](OC)[C@H](O)[C@@H](O)O[C@@H]3C)O[C@@H]2C)O[C@H](C)[C@H]1O` [trisaccharide, 3-O-methyl-α-D-rhamnopyranoside-(1→4)-3-O-methyl-α-D-rhamnopyranoside-(1→4)-3-O-methyl-α-D-rhamnopyranose]: the “inhibition of binding of mAb 1B1 to its target LPS and killed whole cells” value (shortened to “inhibition of binding of mAb 1B1”) is on record as “effectively equivalent in inhibiting” in the experiment on mAb 1B1 and “effectively inhibited” in the experiment with mAb 1B1 (listed as 3-O-methyl rhamnan trisaccharide). Further, the dissociation constant Kd at 1B1 IgM (1:1 binding model, table: two runs, text: one value per oligosaccharide, listed as Tri-, read-out: KD) was 1370 nM and 1460 nM; on 1B1 IgM (setting [2]), 1420 nM. Moreover, the ka in the experiment with 1B1 IgM (setting [3]) was 12800 s⁻¹ and 12300 s⁻¹. The kd at 1B1 IgM (setting [3]) was 0.0176 M⁻¹ s⁻¹ and 0.0179 M⁻¹ s⁻¹. Further, the “Obs Rmax (observed maximum binding response)” value (from here on “Obs Rmax”) in the experiment on 1B1 IgM came out at 21.
Turning to `CO[C@@H]([C@H](O)[C@@H](C)O)[C@H](O)C=O` [D-monosaccharide, 3-O-Methyl-D-rhamnose], the “inhibition of binding of mAb 1B1” value in the experiment on mAb 1B1 is given as “some evidence of inhibition”.
For the molecule `CO[C@@H]1[C@H](O)[C@@H](O[C@H]2[C@H](OC)[C@H](O)C(O)O[C@@H]2C)O[C@H](C)[C@H]1O` (stereo partly drawn) [disaccharide, 3-O-Methyl-α-D-rhamnopyranoside-(1→4)-3-O-methyl-D-rhamnopyranose], in the experiment with mAb 1B1, the “inhibition of binding of mAb 1B1” value is “some evidence of inhibition”. The “Obs Rmax” value in the experiment with 1B1 IgM (listed as Di-) is 14 and 15. Further, the Kd at 1B1 IgM (steady-state analysis, listed as Di-, read-out: KD, steady state affinity) was 85800 nM and 82500 nM; on 1B1 IgM (steady-state analysis, read-out: KD, steady state affinity), 84000 nM.
On to `CO[C@@H]1[C@H](O)[C@@H](O[C@H]2[C@H](OC)[C@H](O)[C@@H](O[C@H]3[C@H](OC)[C@H](O)[C@@H](O[C@H]4[C@H](OC)[C@H](O)[C@@H](O)O[C@@H]4C)O[C@@H]3C)O[C@@H]2C)O[C@H](C)[C@H]1O` [tetrasaccharide, 3-O-methyl-α-D-rhamnopyranoside-(1→4)-3-O-methyl-α-D-rhamnopyranoside-(1→4)-3-O-methyl-α-D-rhamnopyranoside-(1→4)-3-O-methyl-α-D-rhamnopyranose], for which the “inhibition of binding of mAb 1B1” value in the experiment on mAb 1B1 was “effectively equivalent in inhibiting”. In addition, at 1B1 IgM (1:1 binding model, table: two runs, text: one value per oligosaccharide, listed as Tetra-, read-out: KD), the dissociation constant Kd was 650 nM. Further, the Kd on 1B1 IgM (setting [2]) amounted to 660 nM. In the experiment with 1B1 IgM (1:1 binding model), the ka is 5690 s⁻¹ and 5260 s⁻¹; the kd is 0.00372 M⁻¹ s⁻¹ and 0.00348 M⁻¹ s⁻¹. In addition, the “Obs Rmax” value in the experiment with 1B1 IgM is 28 and 29.
As to `CO[C@@H]1[C@H](O)[C@@H](O[C@H]2[C@H](OC)[C@H](O)[C@@H](O[C@H]3[C@H](OC)[C@H](O)[C@@H](O[C@H]4[C@H](OC)[C@H](O)[C@@H](O[C@H]5[C@H](OC)[C@H](O)[C@@H](O)O[C@@H]5C)O[C@@H]4C)O[C@@H]3C)O[C@@H]2C)O[C@H](C)[C@H]1O` [pentasaccharide, 3-O-methyl-α-D-rhamnopyranoside-(1→4)-3-O-methyl-α-D-rhamnopyranoside-(1→4)-3-O-methyl-α-D-rhamnopyranoside-(1→4)-3-O-methyl-α-D-rhamnopyranoside-(1→4)-3-O-methyl-α-D-rhamnopyranose], in the experiment on mAb 1B1, the “inhibition of binding of mAb 1B1” value was “effectively equivalent in inhibiting”. In addition, at 1B1 IgM (1:1 binding model, table: two runs, text: one value per oligosaccharide, listed as Penta-, read-out: KD), the dissociation constant (Kd) came out at 540 nM. The equilibrium dissociation constant (Kd) on 1B1 IgM (setting [2]) was determined as 550 nM. In addition, in the experiment on 1B1 IgM (1:1 binding model), the ka is 3430 s⁻¹ and 5430 s⁻¹; the kd is 0.00186 M⁻¹ s⁻¹ and 0.0019 M⁻¹ s⁻¹. Moreover, the “Obs Rmax” value in the experiment on 1B1 IgM was found to be 34.
As for `CO[C@@H]1[C@@H](O)[C@H](C)OC(O)[C@@H]1O` (stereo partly drawn) [L-monosaccharide, 3-O-Methyl-L-rhamnopyranose], the “inhibition of binding of mAb 1B1” value in the experiment on mAb 1B1 was “completely ineffective in inhibition”.

B1: 3B8: mouse IgM monoclonal antibody to the A-PS terminus; VH SEQ ID NO: 13, VL SEQ ID NO: 17 (antibody, V domains shown)
VH: EIQLQQSGPELVKPGASVKVSCKASGYSFTDYNMYWVKQSHGKSLEWVGYIDPYNGGTTYNQKFKGKATLTVDKSSSTAFMHLNSLTSEDSAVYYCAKGGYRYDAWFAYWGQGTLVTVSA
VL: DAVMTQTPLSLPVSLGDHASISCRSSQSLENNNGNTYLNWYLQKPGQSPQLLIYRVSNRFSGVLDRFSGSGSGTDFTLKISRVEAEDLGVYFCLQVTHVPWTFGGGTKLEIK
For the molecule B1, in the experiment on purified PAO1 LPS, the “epitope relation in competition ELISA with mAb 3C4” value is recorded as “recognised similar overlapping epitopes”. Further, the “range of P. aeruginosa strains recognised” value in experiment [1] was “recognition restricted to the wt serotype 5 strains PAO1 BAA-47 and 5937”.

One may read the Kd as a measure of binding affinity in units of concentration.
